Results from the supplement of paper PMC6045584.
± gives the standard deviation of the averaged measurements.

What was measured:
[1] = compound: CC(=O)NCC(=O)N1[C@@H]2CC[C@H]1c1ccc(Nc3ncc(C(F)(F)F)c(NC4CCC4)n3)cc12; assay: area under dose-response curve of surviving fraction (unscaled, Aref=0) (surviving fraction x log10(nM)); higher = more resistant; settings: exposure time: 5 days; dose range 0.5-1000 nM
Procedure, shortened: (§1)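 Tumour cell lines in 384-well plates were exposed for five days to eight inhibitor concentrations from 0.5 to 1000 nM. Viability was read by CellTiter-Glo luminescence, normalised to DMSO-only wells, in three screens per line. Dose-response survival curves were fitted to surviving fractions by 3-parameter logistic regression in the drc R package. Area under the curve is the unscaled activity area (Aref = 0) over log10 dose.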

[2] = compound: T1, C[C@]1(O)C[C@@H](c2nc(-c3ccc4ccc(-c5ccccc5)nc4c3)c3c(N)nccn32)C1 [OSI-906]; assay: as above; settings: exposure time: 5 days; dose range 0.5-1000 nM
Procedure, shortened: as §1

[3] = compound: COCC[n+]1c2c(n(Cc3cnccn3)c1C)C(=O)c1ccccc1C2=O [YM155]; assay: as above; settings: exposure time: 5 days; dose range 0.5-1000 nM
Procedure, shortened: as §1

[4] = compound: CC(=O)O[C@H]1C(=O)[C@@]2(C)[C@H]([C@H](OC(=O)c3ccccc3)[C@]3(O)C[C@H](OC(=O)[C@H](O)[C@@H](NC(=O)c4ccccc4)c4ccccc4)C(C)=C1C3(C)C)[C@]1(OC(C)=O)CO[C@@H]1C[C@@H]2O [PACLITAXEL]; assay: as above; settings: exposure time: 5 days; dose range 0.5-1000 nM
Procedure, shortened: as §1

[5] = compound: O=C(O)C1(C(=O)O)CCC1.[NH2-].[NH2-].[Pt+2] [CARBOPLATIN]; assay: as above; settings: exposure time: 5 days; dose range 0.5-1000 nM
Procedure, shortened: as §1

[6] = compound: COc1cc2ncnc(Nc3ccc(F)c(Cl)c3)c2cc1OCCCN1CCOCC1 [GEFITINIB]; assay: as above; settings: exposure time: 5 days; dose range 0.5-1000 nM
Procedure, shortened: as §1

[7] = compound: Cc1ccc(-c2cc(C(F)(F)F)nn2-c2ccc(S(N)(=O)=O)cc2)cc1 [CELECOXIB]; assay: as above; settings: exposure time: 5 days; dose range 0.5-1000 nM
Procedure, shortened: as §1

[8] = compound: CC[C@@]1(O)C(=O)OCc2c1cc1n(c2=O)Cc2cc3ccccc3nc2-1 [CAMPTOTHECIN]; assay: as above; settings: exposure time: 5 days; dose range 0.5-1000 nM
Procedure, shortened: as §1

[9] = compound: CC(=O)c1c(C)c2cnc(Nc3ccc(N4CCNCC4)cn3)nc2n(C2CCCC2)c1=O; assay: as above; settings: exposure time: 5 days; dose range 0.5-1000 nM
Procedure, shortened: as §1

[10] = compound: T1, OSI-906; assay: surviving fraction relative to DMSO-only wells; higher = less growth inhibition; settings: exposure time: 5 days
Procedure, shortened: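 Surviving fraction is CellTiter-Glo luminescence divided by the median of wells given DMSO only. For this, log-phase tumour cell lines went into 384-well plates at 250–500 cells per well and, 24 hours later, into five days of continuous inhibitor exposure at 0.5, 1, 5, 10, 50, 100, 500 and 1000 nM. Lines were screened three times and retained only if replicate Pearson r >0.7 and median Z' >0.3.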

Test System | area under dose-response curve [1] | area under dose-response curve [2] | area under dose-response curve [3] | area under dose-response curve [4] | area under dose-response curve [5] | area under dose-response curve [6] | area under dose-response curve [7] | area under dose-response curve [8] | area under dose-response curve [9] | surviving fraction ([10]; 0.5 nM) | surviving fraction ([10]; 1 nM) | surviving fraction ([10]; 5 nM) | surviving fraction ([10]; 10 nM) | surviving fraction ([10]; 50 nM) | surviving fraction ([10]; 100 nM) | surviving fraction ([10]; 500 nM) | surviving fraction ([10]; 1000 nM)
HCC1954 BREAST | 3.09 | 1.26 | 1.4 | 0.63 | 3.62 | 2.73 | 3.51 | 0.947 | 3.1 | 0.33 ± 0.0085 | 0.37 ± 0.012 | 0.384 ± 0.046 | 0.475 ± 0.025 | 0.457 ± 0.063 | 0.384 ± 0.012 | 0.314 ± 0.04 | 0.35 ± 0.023
CASKI CERVIX | 2.28 | 2.98 | 1.37 | 0.492 | 3.19 | 2.15 | 3.15 | 1.07 | 3.41 | 0.826 ± 0.028 | 0.849 ± 0.029 | 0.814 ± 0.049 | 0.798 ± 0.038 | 0.976 ± 0.067 | 0.965 ± 0.064 | 0.982 ± 0.068 | 0.982 ± 0.051
A549 LUNG | 2.54 | 3.1 | 1.83 | 1.32 | 3.54 | 3.46 | 3.51 | 1.62 | 3.48 | 0.932 ± 0.016 | 0.943 ± 0.028 | 0.948 ± 0.0087 | 0.931 ± 0.013 | 0.96 ± 0.029 | 0.97 ± 0.031 | 0.935 ± 0.027 | 0.908 ± 0.025
SCC36 HEADNECK | 2.74 | 2.48 | 1.77 | 0.905 | 3.45 | 2.61 | 3.53 | 1.36 | 3.5 | 0.783 ± 0.039 | 0.816 ± 0.062 | 0.796 ± 0.083 | 0.805 ± 0.055 | 0.742 ± 0.076 | 0.834 ± 0.066 | 0.64 ± 0.19 | 0.57 ± 0.046
93VU HEADNECK | 2.61 | 2.69 | 2.62 | 1.04 | 4.03 | 2.74 | 3.54 | 1.8 | 3.72 | 0.821 ± 0.057 | 0.793 ± 0.053 | 0.836 ± 0.041 | 0.809 ± 0.13 | 0.974 ± 0.069 | 0.848 ± 0.014 | 0.711 ± 0.021 | 0.724 ± 0.23
T47D BREAST | 3.44 | 3.09 | 1.68 | 1.04 | 3.42 | 3.54 | 3.64 | 1.54 | 3.62 | 0.9222 ± 0.0086 | 0.933 ± 0.038 | 0.9888 ± 0.0092 | 0.917 ± 0.02 | 0.982 ± 0.058 | 0.954 ± 0.028 | 0.868 ± 0.018 | 0.85 ± 0.018
G292 BONE | 2.24 | 2.59 | 1.47 | 0.722 | 3.42 | 3.36 | 3.34 | 1.35 | 3.05 | 0.923 ± 0.032 | 0.929 ± 0.035 | 0.929 ± 0.04 | 0.919 ± 0.034 | 0.728 ± 0.059 | 0.624 ± 0.021 | 0.579 ± 0.04 | 0.553 ± 0.045
PCI30 HEADNECK | 2.81 | 3.26 | 1.32 | 0.529 | 3.57 | 2.84 | 3.38 | 1.92 | 3.11 | 0.89 ± 0.027 | 0.947 ± 0.022 | 0.955 ± 0.076 | 1.05 ± 0.074 | 1.07 ± 0.051 | 1.01 ± 0.077 | 0.939 ± 0.075 | 0.931 ± 0.033
CAL51 BREAST | 2.15 | 3.16 | 0.772 | 0.546 | 3.33 | 3.42 | 3.45 | 1.36 | 3.21 | 0.958 ± 0.023 | 0.924 ± 0.018 | 0.9553 ± 0.0093 | 0.94 ± 0.087 | 1.01 ± 0.02 | 0.992 ± 0.031 | 0.948 ± 0.029 | 0.922 ± 0.074
MDAMB361 BREAST | 3.12 | 2.51 | 1.61 | 2.36 | 2.64 | 2.9 | 2.93 | 2.14 | 2.85 | 0.669 ± 0.025 | 0.682 ± 0.024 | 0.721 ± 0.04 | 0.741 ± 0.061 | 0.847 ± 0.067 | 0.842 ± 0.011 | 0.758 ± 0.015 | 0.797 ± 0.033
C33A CERVIX | 2.24 | 3.42 | 0.324 | 0.98 | 4.12 | 2.98 | 3.25 | 1.24 | 3.67 | 0.981 ± 0.054 | 0.945 ± 0.052 | 1.08 ± 0.011 | 1.1 ± 0.053 | 1.02 ± 0.13 | 1.05 ± 0.14 | 1.06 ± 0.096 | 0.985 ± 0.011
LNCAP PROSTATE | 2.3 | 3.5 | 1.82 | 0.354 | 3.35 | 3.19 | 3.19 | 0.813 | 3.12 | 1.12 ± 0.058 | 1.07 ± 0.095 | 1.07 ± 0.036 | 1.11 ± 0.018 | 0.991 ± 0.12 | 1.05 ± 0.1 | 1.04 ± 0.032 | 1.06 ± 0.026
SCC90 HEADNECK | 2.52 | 3.1 | 2.17 | 1.1 | 3.68 | 2.63 | 3.43 | 1.77 | 3.7 | 0.88 ± 0.033 | 0.822 ± 0.075 | 0.89 ± 0.096 | 0.883 ± 0.026 | 1.03 ± 0.098 | 1.02 ± 0.027 | 0.971 ± 0.019 | 0.981 ± 0.078
